In patent publication US9809563B2 (GIFU University, priority 2014, dated 2017):
Counter-ions that a name gives are not always drawn.

Target: abnormal prion protein (Mus musculus, UniProt P04925)
Assay: cell-based

abnormal prion protein, sequence (P04925 23-230 limits assumed): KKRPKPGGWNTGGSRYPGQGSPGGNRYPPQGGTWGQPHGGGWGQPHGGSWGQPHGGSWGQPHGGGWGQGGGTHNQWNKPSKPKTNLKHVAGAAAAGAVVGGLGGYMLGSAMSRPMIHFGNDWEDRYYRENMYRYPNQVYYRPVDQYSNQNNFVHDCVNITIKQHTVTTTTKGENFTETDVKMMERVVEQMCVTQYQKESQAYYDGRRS

SMILES: O=C(CN1CCCC1)Nc1ccc(C(c2ccc(NC(=O)CN3CCCC3)cc2)C2CCCCC2)cc1 [maleic acid salt, N,N′-[(cyclohexylmethylene)di-4,1-phenylene]bis[2-(1-pyrrolidinyl)acetamide] maleate]
- IC50: 460 ± 200 nM
